Reference: ChEMBL document CHEMBL1144818, “Antifouling activity of a dibrominated cyclopeptide from the marine sponge Geodia barretti” (J Nat Prod, 2008)
Active and inactive are the calls of the source. The calls are words filed in the database; no cut-off is given here.

Tests used:
[1] = system: Amphibalanus improvisus; experiment: Reversal of antifouling activity in Balanus improvisus assessed as inhibition of cyprid larvae settlement at 10 uM after 48 hrs measured after transferring to fresh sea water; type: functional, organism-based
[2] = system: Amphibalanus improvisus; experiment: Antifouling activity in Balanus improvisus assessed as inhibition of cyprid larvae settlement; type: functional, organism-based
[3] = biological target: 5-hydroxytryptamine receptor 2A (Homo sapiens) (UniProt P28223); experiment: Binding affinity to human 5HT2A receptor expressed in HEK293 cells; type: cell-based
Chain of 5-hydroxytryptamine receptor 2A (Homo sapiens) (P28223 whole entry): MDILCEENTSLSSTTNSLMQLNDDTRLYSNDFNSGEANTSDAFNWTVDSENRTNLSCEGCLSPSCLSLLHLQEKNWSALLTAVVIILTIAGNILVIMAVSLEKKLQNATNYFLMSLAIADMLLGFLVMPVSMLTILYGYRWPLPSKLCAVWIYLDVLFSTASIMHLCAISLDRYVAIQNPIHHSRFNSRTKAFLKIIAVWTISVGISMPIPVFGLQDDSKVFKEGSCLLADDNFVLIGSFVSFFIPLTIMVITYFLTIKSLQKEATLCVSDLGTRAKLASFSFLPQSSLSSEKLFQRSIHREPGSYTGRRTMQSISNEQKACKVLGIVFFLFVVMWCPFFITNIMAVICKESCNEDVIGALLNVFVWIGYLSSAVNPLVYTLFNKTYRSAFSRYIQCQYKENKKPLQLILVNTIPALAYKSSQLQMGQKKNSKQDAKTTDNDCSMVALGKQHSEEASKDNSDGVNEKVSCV

[4] = biological target: T1, 5-hydroxytryptamine receptor 2C (Homo sapiens) (UniProt P28335); experiment: Binding affinity to human 5HT2C receptor expressed in HEK293 cells; type: cell-based
T1 sequence (whole entry): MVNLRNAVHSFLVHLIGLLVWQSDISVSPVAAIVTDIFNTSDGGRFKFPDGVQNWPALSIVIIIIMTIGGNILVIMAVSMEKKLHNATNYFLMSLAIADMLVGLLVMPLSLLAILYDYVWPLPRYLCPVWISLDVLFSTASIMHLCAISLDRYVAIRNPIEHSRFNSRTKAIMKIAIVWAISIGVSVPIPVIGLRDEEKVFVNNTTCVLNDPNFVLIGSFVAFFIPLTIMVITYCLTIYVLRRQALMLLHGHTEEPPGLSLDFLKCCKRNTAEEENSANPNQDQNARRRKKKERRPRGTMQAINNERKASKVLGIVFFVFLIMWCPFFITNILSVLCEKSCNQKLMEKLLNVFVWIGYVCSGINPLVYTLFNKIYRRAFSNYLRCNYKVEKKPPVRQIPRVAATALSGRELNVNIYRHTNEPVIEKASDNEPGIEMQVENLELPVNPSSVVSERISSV

[5] = biological target: 5-hydroxytryptamine receptor 4 (Homo sapiens) (UniProt Q13639); experiment: Binding affinity to human 5HT4 receptor expressed in HEK293 cells; type: cell-based
Chain of 5-hydroxytryptamine receptor 4 (Homo sapiens) (Q13639 whole entry): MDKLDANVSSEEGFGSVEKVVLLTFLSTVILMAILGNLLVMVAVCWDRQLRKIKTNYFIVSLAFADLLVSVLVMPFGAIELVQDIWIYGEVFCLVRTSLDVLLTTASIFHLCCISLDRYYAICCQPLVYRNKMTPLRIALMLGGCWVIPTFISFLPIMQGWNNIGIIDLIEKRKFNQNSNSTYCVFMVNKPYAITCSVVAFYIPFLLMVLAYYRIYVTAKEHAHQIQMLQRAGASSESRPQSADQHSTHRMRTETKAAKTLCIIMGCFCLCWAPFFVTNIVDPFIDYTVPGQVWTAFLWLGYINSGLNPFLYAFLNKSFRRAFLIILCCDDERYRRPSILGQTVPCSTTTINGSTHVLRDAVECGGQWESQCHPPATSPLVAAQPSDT

[6] = biological target: 5-hydroxytryptamine receptor 4 (Homo sapiens) (UniProt Q13639); experiment: Binding affinity to human 5HT4 receptor expressed in HEK293 cells below 10 uM; type: cell-based

| Activity [3] | Activity [4] | Activity [5] | Activity [6] | SMILES | Activity [1] | EC50 [2] |
| --- | --- | --- | --- | --- | --- | --- |
| inactive | inactive | inactive |  | N=C(N)NCCC[C@@H]1NC(=O)C(C(O)(c2c[nH]c3cc(Br)ccc23)c2c(Br)ccc3c(=O)o[nH]c23)NC1=O (stereo partly specified) | Active | 0.015 µM |
|  |  |  | Active | N=C(N)NCCC[C@@H]1NC(=O)C(Cc2c[nH]c3cc(Br)ccc23)NC1=O (stereo partly specified) |  |  |
